Read-outs that look alike come from different tables or passages of the source.
Target: T1, Zcchc11 enzyme (Homo sapiens, UniProt Q5TAX3)
T1 construct: made in house; host or cells: HEK293 cells (Zcchc11); E. coli Rosetta II (LIN28A)
T1 sequence (Q5TAX3 212-1420): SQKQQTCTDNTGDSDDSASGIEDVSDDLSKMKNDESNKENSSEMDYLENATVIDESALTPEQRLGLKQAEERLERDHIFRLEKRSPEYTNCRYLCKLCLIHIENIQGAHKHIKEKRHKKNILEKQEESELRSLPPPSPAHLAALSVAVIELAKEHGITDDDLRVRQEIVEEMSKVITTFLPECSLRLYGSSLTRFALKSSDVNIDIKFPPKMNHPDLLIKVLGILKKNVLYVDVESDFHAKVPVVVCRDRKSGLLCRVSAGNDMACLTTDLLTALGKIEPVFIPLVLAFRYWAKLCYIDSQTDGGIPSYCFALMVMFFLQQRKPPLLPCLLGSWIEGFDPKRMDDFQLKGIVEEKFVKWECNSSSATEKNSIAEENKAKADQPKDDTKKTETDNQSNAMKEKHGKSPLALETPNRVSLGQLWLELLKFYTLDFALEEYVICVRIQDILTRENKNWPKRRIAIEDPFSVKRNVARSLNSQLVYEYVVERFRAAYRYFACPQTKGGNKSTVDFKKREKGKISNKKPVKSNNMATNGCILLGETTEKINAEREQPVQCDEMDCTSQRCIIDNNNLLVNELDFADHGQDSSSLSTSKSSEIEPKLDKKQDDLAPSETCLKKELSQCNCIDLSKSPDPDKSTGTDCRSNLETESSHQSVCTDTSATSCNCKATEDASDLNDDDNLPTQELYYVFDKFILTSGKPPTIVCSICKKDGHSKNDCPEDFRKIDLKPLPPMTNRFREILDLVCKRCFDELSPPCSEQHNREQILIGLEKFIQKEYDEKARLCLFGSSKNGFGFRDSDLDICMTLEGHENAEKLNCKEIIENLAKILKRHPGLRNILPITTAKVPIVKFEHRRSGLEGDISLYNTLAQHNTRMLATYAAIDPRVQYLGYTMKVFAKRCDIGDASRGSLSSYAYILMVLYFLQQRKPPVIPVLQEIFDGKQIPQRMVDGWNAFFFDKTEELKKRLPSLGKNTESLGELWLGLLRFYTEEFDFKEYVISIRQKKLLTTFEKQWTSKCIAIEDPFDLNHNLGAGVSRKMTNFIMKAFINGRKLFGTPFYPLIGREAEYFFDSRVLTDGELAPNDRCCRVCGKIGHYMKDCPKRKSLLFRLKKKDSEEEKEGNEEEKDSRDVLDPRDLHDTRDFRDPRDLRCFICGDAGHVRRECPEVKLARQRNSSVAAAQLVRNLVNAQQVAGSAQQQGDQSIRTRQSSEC
Assay: TUTase assay (Zcchc11 assay, Lin28a-dependent polyuridylation of pre-let-7)
Type: biochemical
Conditions: read-out: Potency Lin28a-dep Z11 IC50
Protocol: The purpose of the Zcchc11 assay is to determine compound potency against Zcchc11 enzyme through the measurement of IC50. Compound inhibition is measured as a function of polyuridine tails added to RNA substrates in the presence of active TUTase, UTP, and inhibitor. The Zcchc11 assay was done in a black, non-binding, 384 well plate (Corning #3575). All steps were performed at room temperature. For a typical assay, a 29 ul aliquot of assay buffer (50 mM HEPES pH 7.3, 150 mM KCl, 5 mM MgCl2, 10 mM DTT, 0.01% Triton X-100, 40 U/ml RNAsin (Promega)) containing LIN28A protein (final concentration: 10 nM) is added to each well. Next, 1 ul of compound in 100% DMSO is transferred from a compound dilution plate in which the compound is serially diluted. Next, 10 ul of a 5× mix of Zcchc11 and RNA substrate (5′-fluorescein labeled pre-let-7 miRNA (Dharmacon)) is added (final concentrations: 0.2 nM and 2 nM, respectively). The plate is placed on a plate shaker for 30 seconds to produce mixing, then incubated for 30 minutes. Next, 10 ul of a 5× mix of UTP and the quenching probe (3′-rhodamine labeled A20, polyadenosine nucleotide, (IDT)) is added (final concentrations: 5 uM and 4 nM, respectively). The plate is immediately placed in a Biotek Cytation 5 plate reader, and the time-dependent decrease in fluorescein fluorescence resulting from annealing of the A20 probe to polyuridine tails is recorded, using the kinetics mode of the reader. Reaction rates are obtained using linear fits to the early portion of progress curves. IC50 values are calculated using a four parameter fit with 100% enzyme activity determined from the DMSO control and 0% activity from control samples lacking UTP.
The LIN28A protein was expressed in and purified from E. coli, strain Rosetta II (Novagen). The entire coding sequence of the human, wild-type protein was cloned into expression vector pMAL (NEB), down-stream from a maltose-binding protein tag. The linker sequence contained a TEV protease cleavage site. The protein was purified from bacterial extracts using an MBP-Trap column (GE Healthcare Life Sciences), followed by tag cleavage and removal of the tag by ion-exchange chromatography. When necessary, contaminating bacterial RNA was removed using the procedure describe by Faehnle C R. et al. (2017) Multi-domain utilization by TUT4 and TUT7 in control of let-7 biogenesis. Nat Struct Mol Biol, 24:658-665.
The Zcchc11 protein was expressed in and purified from HEK293 cells. A truncated protein comprising residues 212-1420 of the human sequence was cloned into expression vector pTT5 (Viva Biotech) down-stream from a maltose-binding protein tag. The linker sequence contained a TEV protease cleavage site, and a FLAG tag was added to the carboxyl terminus of the protein. The protein was purified from cell extracts using an MBP-Trap column (GE Healthcare Life Sciences), followed by tag cleavage and further enrichment of the full length construct using anti-FLAG affinity media (Sigma Aldrich).
“+” represents an IC50 value that is greater than 50 μM; “++” represents an IC50 value that is greater than 10 μM and equal to or less than 50 μM; “+++” represents an IC50 value that is greater than 1 μM and equal to or less than 10 μM; and “++++” represents an IC50 value that is equal to or less than 1 μM.

[1] = LIN28A 10 nM, Zcchc11 0.2 nM, 5′-fluorescein pre-let-7 miRNA 2 nM, UTP 5 uM, room temperature, 30 minutes pre-incubation
[2] = Lin28a-dependent Zcchc11 (Z11) TUTase activity
[3] = Lin28a-dependent Zcchc11 (Z11) TUTase assay

Question: Which IC50 [1] does the source give for `O=C(O)c1cn(-c2cc3n(n2)CCOC3)c2cc(N3CCC[C@@H]3COc3ncccc3Cl)c(Cl)cc2c1=O` [Example 76, (R)-6-chloro-7-(2-(((3-chloropyridin-2-yl)oxy)methyl)pyrrolidin-1-yl)-1-(6,7-dihydro-4H-pyrazolo[5,1-c][1,4]oxazin-2-yl)-4-oxo-1,4-dihydroquinoline-3-carboxylic acid] here?
Answer: ≤ 1000 nM

Question: `CCc1ccccc1-n1cc(C(=O)O)c(=O)c2cc(F)c(N3CCC[C@@H]3COc3ccccn3)cc21` [Compound 161, (R)-1-(2-ethylphenyl)-6-fluoro-4-oxo-7-(2-((pyridin-2-yloxy)methyl)pyrrolidin-1-yl)-1,4-dihydro-quinoline-3-carboxylic acid] was tested. Which IC50 [2] did it give?
Answer: 1000 to 10000 nM

Question: For `O=C(O)c1cn(-c2ccc(O)cc2)c2cc(N3CCC[C@@H]3COc3ccccn3)c(F)cc2c1=O` [Compound 166, (R)-6-fluoro-1-(4-hydroxy-phenyl)-4-oxo-7-(2-((pyridin-2-yloxy)methyl)pyrrolidin-1-yl)-1,4-dihydro-quinoline-3-carboxylic acid], which IC50 [2] is on record?
Answer: ≤ 1000 nM

Question: How did the IC50 [3] turn out when `O=C(O)c1cn(-c2ncccn2)c2cc(N3CCC[C@@H]3COc3ncccc3Cl)c(Cl)cc2c1=O` [Example 500, (R)-6-chloro-7-(2-(((3-chloropyridin-2-yl)oxy)methyl)pyrrolidin-1-yl)-4-oxo-1-(pyrimidin-2-yl)-1,4-dihydroquinoline-3-carboxylic acid] was run?
Answer: ≤ 1000 nM

Question: With `COCCN(C)C1CN(c2ccc(-n3cc(C(=O)O)c(=O)c4cc(Cl)c(N5CCC[C@@H]5COc5nc(N(C)C)ccc5Cl)cc43)cn2)C1` [Example 657, (R)-6-chloro-7-(2-(((3-chloro-6-(dimethylamino)pyridin-2-yl)oxy)methyl)pyrrolidin-1-yl)-1-(6-(3-((2-methoxyethyl) (methyl)amino)azetidin-1-yl)pyridin-3-yl)-4-oxo-1,4-dihydroquinoline-3-carboxylic acid] as the compound, how does the IC50 [3] read?
Answer: ≤ 1000 nM

Question: How did the IC50 [1] turn out when `COCCN1CCC(n2cc(C(=O)O)c(=O)c3cc(Cl)c(N4CCC[C@@H]4COc4ncccc4Cl)cc32)C1` (stereo partly drawn) [Example 38, 6-Chloro-7-[(2R)-2-{[(3-chloropyridin-2-yl)oxy]methyl}-pyrrolidin-1-yl]-1-[1-(2-methoxyethyl)pyrrolidin-3-yl]-4-oxo-1,4-dihydroquinoline-3-carboxylic acid] was run?
Answer: 1000 to 10000 nM

Question: With `O=C(O)c1cn(C2CN(CCO)C2)c2cc(N3CCC[C@@H]3COc3ncccc3Cl)c(Cl)cc2c1=O` [Example 34, 6-Chloro-7-[(2R)-2-{[(3-chloropyridin-2-yl)oxy]methyl}pyrrolidin-1-yl]-1-[1-(2-hydroxyethyl)azetidin-3-yl]-4-oxo-1,4-dihydroquinoline-3-carboxylic acid] as the compound, how does the IC50 [1] read?
Answer: 1000 to 10000 nM

Question: For `Cc1c(-n2cc(C(=O)O)c(=O)c3cc(Cl)c(N4CCC[C@@H]4COc4ncccc4Cl)cc32)cnn1C` (racemic) [Compound 179, rac-(R)-6-chloro-7-(2-(((3-chloropyridin-2-yl)oxy)methyl)pyrrolidin-1-yl)-1-(1,5-dimethyl-1H-pyrazol-4-yl)-4-oxo-1,4-dihydro-quinoline-3-carboxylic acid], which IC50 [2] is on record?
Answer: ≤ 1000 nM

Question: Which IC50 [3] does the source give for `O=C(O)c1cn(-c2ccc(CO)nc2)c2cc(N3CCC[C@@H]3COc3ncccc3Cl)c(Cl)cc2c1=O` [Example 429, (R)-6-chloro-7-(2-(((3-chloropyridin-2-yl)oxy)methyl)pyrrolidin-1-yl)-1-(6-(hydroxymethyl)pyridin-3-yl)-4-oxo-1,4-dihydroquinoline-3-carboxylic acid] here?
Answer: ≤ 1000 nM

Question: How did the IC50 [3] turn out when `COc1ccc(C)c(OC[C@H]2C[C@H]3C[C@H]3N2c2cc3c(cc2Cl)c(=O)c(C(=O)O)cn3-c2ccc(N3CC(N(C)C)C3)nc2)n1` [Example 676, 6-chloro-1-(6-(3-(dimethylamino)azetidin-1-yl)pyridin-3-yl)-7-((1R,3R,5R)-3-(((6-methoxy-3-methylpyridin-2-yl)oxy)methyl)-2-azabicyclo[3.1.0]hexan-2-yl)-4-oxo-1,4-dihydroquinoline-3-carboxylic acid] was run?
Answer: ≤ 1000 nM

Question: How did the IC50 [3] turn out when `COc1ccc(-n2cc(C(=O)O)c(=O)c3cc(Cl)c(N4CCC[C@@H]4COc4ncccc4Cl)cc32)cn1` [Example 353, (R)-6-chloro-7-(2-(((3-chloropyridin-2-yl)oxy)methyl)pyrrolidin-1-yl)-1-(6-methoxypyridin-3-yl)-4-oxo-1,4-dihydroquinoline-3-carboxylic acid] was run?
Answer: ≤ 1000 nM

Question: `CN(C)C1CN(c2ccc(-n3cc(C(=O)O)c(=O)c4cc(Br)c(N5CCC[C@@H]5COc5ncccc5Cl)cc43)cn2)C1` [Example 537, (R)-6-bromo-7-(2-(((3-chloropyridin-2-yl)oxy)methyl)pyrrolidin-1-yl)-1-(6-(3-(dimethylamino)azetidin-1-yl)pyridin-3-yl)-4-oxo-1,4-dihydroquinoline-3-carboxylic acid] was tested. Which IC50 [3] did it give?
Answer: ≤ 1000 nM

Question: Which IC50 [1] does the source give for `CO/N=C1/C[C@H](COc2nc(OC)ccc2Cl)N(c2cc3c(cc2Cl)c(=O)c(C(=O)O)cn3-c2ccc(N3CC(N(C)C)C3)nc2)C1` [Example 69, 6-chloro-7-[(2R,4Z)-2-[[(3-chloro-6-methoxypyridin-2-yl)oxy]methyl]-4-(methoxyimino)pyrrolidin-1-yl]-1-[6-[3-(dimethylamino)azetidin-1-yl]pyridin-3-yl]-4-oxoquinoline-3-carboxylic acid] here?
Answer: ≤ 1000 nM

Question: `COC1C[C@H](COc2ncccc2Cl)N(c2cc3c(cc2Cl)c(=O)c(C(=O)O)cn3-c2ccc(N3CC(N(C)C)C3)nc2)C1` (stereo partly drawn) [Compound 327, 6-Chloro-7-[(2R)-2-[[(3-chloropyridin-2-yl)oxy]methyl]-4-methoxy-pyrrolidin-1-yl]-1-[6-[3-(dimethyl-amino)azetidin-1-yl]pyridin-3-yl]-4-oxoquinoline-3-carboxylic acid] was tested. Which IC50 [2] did it give?
Answer: ≤ 1000 nM

From patent US12662491B2 (Redona Therapeutics, Inc., priority 2020, dated 2026)
